Where a name gives a salt, the structure may show the parent alone.
Columns and labels:
[1] = test system: HCT116; test: viability inhibition vs untreated; higher = more cytotoxic; details: 72 h
[2] = test system: HCT116; details: 72 h
Description: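 HCT116 control and MTA1-KO (CRISPR) HCT116 cells were seeded in 384-well plates (800 cells/well), treated 16 h later with 237 metabolism-related anticancer drugs at five doses (10 uM, 2 uM, 400 nM, 80 nM, 16 nM) for 72 h, two replicates; viability by CCK8. Values are % inhibition of viability relative to untreated cells, plus fitted IC50.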

Compound	viability inhibition ([1]; genotype: MTA1-KO, 16 nM) [%]	viability inhibition ([1]; genotype: MTA1-KO, 80 nM) [%]	viability inhibition ([1]; genotype: MTA1-KO, 400 nM) [%]	viability inhibition ([1]; genotype: MTA1-KO, 2000 nM) [%]	viability inhibition ([1]; genotype: MTA1-KO, 10000 nM) [%]	viability inhibition ([1]; genotype: control, 16 nM) [%]	viability inhibition ([1]; genotype: control, 80 nM) [%]	viability inhibition ([1]; genotype: control, 400 nM) [%]	viability inhibition ([1]; genotype: control, 2000 nM) [%]	viability inhibition ([1]; genotype: control, 10000 nM) [%]	IC50 ([2]; genotype: MTA1-KO) [µM]	IC50 ([2]; genotype: control) [µM]
NC(N)=O [Urea]	-19	-12.8	-10.1	-15.4	-12.3	5.26	1.82	-7.36	3.6	-3.54	> 10	> 10
NCCCC(N)(C(=O)O)C(F)F (stereo unspecified) [Eflornithine hydrochloride Monohydrate]	-16.1	-27.6	-24	-21.9	-20.4	11.3	1.76	-3.16	0.852	61.6	> 10	9.47
COC(=O)[C@@H](N)CCCN=C(N)N[N+](=O)[O-] [L-NAME hydrochloride]	-9.14	-19.4	-19.9	-26	24.3	-17.9	-12.2	-11.4	-20.1	-19.3	> 10	> 10
CCN[C@H]1C[C@H](C)S(=O)(=O)c2sc(S(N)(=O)=O)cc21 [Dorzolamide hydrochloride]	-14.8	-12.5	-7.44	-8.97	-17.4	-5.26	-2.58	-9.91	-10	-10.3	> 10	> 10
O=c1[nH]cc(F)c(=O)[nH]1 [Fluorouracil]	-23.1	-26	-27.2	1.88	53.9	-8.89	-1.82	8.13	22.2	83.9	6.47	3.81
CNC(=O)c1cccc(-c2ccc3c(N4CCOC[C@@H]4C)nc(N4CCOC[C@@H]4C)nc3n2)c1 [Vistusertib]	16.2	29.8	63.1	83.3	76.2	-6.57	-15	45.6	74.4	69.9	0.189	0.319
O=C(Nc1ccc(O)cc1)c1ccccc1O [Osalmid]	-19.6	-14.3	-16	-6.29	-7.75	-15.5	-18.3	-10.9	-10.7	5	> 10	> 10
OCc1ccc(-c2ccc(-c3ccc(CO)s3)o2)s1 [RITA]	7.71	35	91.7	101	99	-0.895	27.2	72.5	96.3	104	1.21	0.153
Nc1ccc(/C=C/C(=O)NCc2cc3cc(-c4ccc(C(=O)N5CCC(F)(F)CC5)cc4)cc(-c4ccc(F)cc4)c3o2)cn1 [KPT9274]	-17.2	-10	-24	-17.1	8.44	15.8	-9.31	7.28	14.9	13.4	> 10	> 10
CC(C)[C@]12O[C@H]1[C@@H]1O[C@]13[C@]1(O[C@H]1C[C@H]1C4=C(CC[C@@]13C)C(=O)OC4)[C@@H]2O [Triptolide]	58.4	92.8	88.9	90.8	92.2	67.7	105	90.1	89.5	91.8	< 0.016	< 0.016
CC(=NNC(=S)N1CCC1)c1ccccn1	113	110	111	108	107	107	110	95.8	105	111	< 0.016	< 0.016
CO[C@@H](C)Cn1c(=O)n(C)c2cnc3ccc(-c4cncc(C(C)(C)O)c4)cc3c21	-8.01	27.7	58.8	90.6	102	-0.225	-9.63	58.5	90.9	104	0.289	0.382
O=C(O)c1ccc(C=C2SC(=S)N(c3cccc(C(F)(F)F)c3)C2=O)cc1 [CFTRinh172]	-5.28	-12.6	-0.878	-4.39	25.2	-6.21	-18.3	-11.9	16	64.3	> 10	5.31
CO[C@H]1C[C@@H]2CC[C@@H](C)[C@@](O)(O2)C(=O)C(=O)N2CCCC[C@H]2C(=O)O[C@H]([C@H](C)C[C@@H]2CC[C@@H](O)[C@H](OC)C2)CC(=O)[C@H](C)/C=C(\C)[C@@H](O)[C@@H](OC)C(=O)[C@H](C)C[C@H](C)/C=C/C=C/C=C/1C [Rapamycin]	4.81	4.98	3.36	17.6	18.4	-3	-2.75	2.91	0.723	24.6	> 10	> 10
O=C(Cc1cccc(OC(F)(F)F)c1)Nc1ccc(CCCCc2nnc(NC(=O)Cc3ccccn3)s2)nn1 [CB839]	-4.17	2.28	-14.1	1.81	3.54	0.501	13.6	24	20.5	20.2	> 10	> 10
CC(C)(O)CNc1nc(Nc2ccnc(C(F)(F)F)c2)nc(-c2cccc(C(F)(F)F)n2)n1 [Enasidenib]	-26	-20.5	-17.3	-19.3	-24.8	-12.3	-12.7	-4.75	-20.9	-15.6	> 10	> 10
Nc1ncnc2c1ncn2[C@@H]1O[C@H](COP(=O)(O)O)[C@@H](O)[C@H]1O [Adenosine 5'-monophosphate monohydrate]	-22.7	-25.1	-20.2	-18.3	-15.5	14.8	5.2	12.1	10.3	11.9	> 10	> 10
NS(=O)(=O)c1ccccc1 [Benzenesulfonamide]	3.96	-4.26	4.06	12.2	54.7	7.65	12.9	10.8	25.5	55.6	9.29	8.77
